Data: patent US4321267A, “1-Substituted-4 (1H)-pyridinone hydrazones active against Giardia lamblia and Trichomonas vaginalis” (priority 1980, dated 1982)
≈ marks a conversion by molar mass, not a printed value.

Columns and labels:
Giardia lamblia [1] = conditions: humans; cited from earlier work
Giardia lamblia [2] = test: In vitro anti-Giardia lamblia activity (multiwell culture, viable count by hemacytometer, 24 h); type: cell-based; conditions: Giardia duodenalis, 50% inhibition of growth, 37° C., about 16-24 hours, anaerobic, read-out: Anti-G. lamblia ED50
Protocol: (§1) About 1.0-2.0 ml of a nutrient medium, for example, the modified Diamond's (TPS) medium at pH 7.05, together with about 10% by volume of heat-inactivated serum and about 1% by volume of an antibiotic-antimycoticmixture, is placed in each well of a multi-well plate. To this mixture, an aliquot of a suspension of G. lamblia cells containing about 10^6 organism is added. Subsequently, each well is inoculated with a known concentration of one of the pyridinone hydrazones, for example, 1-[(4-chlorophenyl)-4(1H)-pyridinone]-2-[(4-chlorophenyl)methylene]-hydrazone. The multiwell plate containing the individual culture samples is incubated under anaerobic conditions at about 37° C. for about 16-24 hours. The number of viable cells remaining in each well are then counted, such as with a hemocytometer. The percentage of survival is determined by comparison to controls incubated with DMSO (dimethylsulfoxide) and the effective concentration (in parts per million) for 50% inhibition of growth (ED50) is determined. It is established that the lower the ED50 the higher the activity of the 1-substituted-4-(1H)-pyridinone hydrazone tested.
(§2) In each well of a multiwell plate is placed 1.4 ml of Diamond's TPS medium (See Table II) at pH 7.05, 10% by volume of heat-inactivated fetal bovine serium, and 1% by volume of an antibiotic-antimycotic solution (see Table III). A suspension of Giardia lamblia is centrifuged at 2,500 xg for 6 minutes. The pelleted cells are resuspended in a small volume of Diamond's medium, the cells are counted and each well inoculated with approximately 10^6 organisms. A stock solution of 1-[(4-chlorophenyl)-4(1H)-pyridinone]-2-[(4-methylthiophenyl)-methylene]hydrazone in dimethylsulfoxide is made at a concentration of 150 μg/ml. The wells are then inoculated with various concentrations of the drug. The plates are incubated for 24 hours at 37° C. in an anaerobic Gas Pak jar. After 24 hours of incubation, each well is mixed and counted for viable organisms using a hemacytometer. The percentage of survival is determined by comparing the treated wells to controls treated with dimethylsulfoxide.

Trichomonas vaginalis [3] = test: In vitro anti-Trichomonas vaginalis activity (method of Example 1); type: cell-based, T. vaginalis 30001; conditions: for IC50: Trichomonas vaginalis, 37° C., 24 hours, read-out: Anti-T. vaginalis ED50; for activity against T. vaginalis (in words): method of Example 1
Protocol: as §1, §2
Employing the method of Example 1, centrifuged cells of T. vaginalis 30001 are incubated with 1-[(4-chlorophenyl)-4(1H)-pyridinone]-2-[(4-methylthiophenyl)methylene]hydrazone at 37° C. for 24 hours.

[4] = in animals; cited from earlier work
Trichomonas vaginalis [5] = conditions: humans; cited from earlier work
[6] = humans; cited from earlier work

Compound | IC50 (Giardia lamblia [2]) [µg/mL] | IC50 (Trichomonas vaginalis [3]) [µg/mL] | treatment of giardiasis infection (Giardia lamblia [1]) | carcinogenicity [4] | therapy of trichomoniasis (Trichomonas vaginalis [5]) | activity against T. vaginalis (in words) (Trichomonas vaginalis [3]) | adverse side effects [6]
CCN(CC)CCCC(C)Nc1c2ccc(Cl)cc2nc2ccc(OC)cc12 (stereo not drawn) [Atabrine] | – | – | successfully treated | – | – | – | –
FC(F)(F)c1ccc(C=NN=c2ccn(-c3ccc(Cl)cc3)cc2)cc1 [(5), 1-[(4-chlorophenyl)-4(1H)-pyridinone]-2-[(4-trifluoromethylphenyl)methylene]hydrazone] | 1.42 (≈ 3.78 µM) | 3.25 (≈ 8.65 µM) | – | – | – | – | –
N#Cc1ccc(C=NN=c2ccn(-c3ccc(Cl)cc3)cc2)cc1 [(2), 1-[(4-chlorophenyl)-4(1H)-pyridinone]-2-[(4-cyanophenyl)methylene]hydrazone] | 2.25 (≈ 6.76 µM) | 3.3 (≈ 9.92 µM) | – | – | – | active against T. vaginalis | –
Clc1ccc(-n2ccc(=NN=Cc3ccc(Cl)cc3Cl)cc2)cc1 [(7)] | 1.2 (≈ 3.19 µM) | 1.75 (≈ 4.65 µM) | – | – | – | – | –
Fc1ccc(C=NN=c2ccn(-c3ccc(Cl)cc3)cc2)cc1 [(8), 1-[(4-chlorophenyl)-4(1H)-pyridinone]-2-[(4-fluorophenyl)methylene]hydrazone] | 2.25 (≈ 6.91 µM) | 4 (≈ 12.3 µM) | – | – | – | – | –
O=C1OCCN1/N=C/c1ccc([N+](=O)[O-])o1 [furazolidone] | – | – | successfully treated | – | – | – | adverse side effects

The next lines start with results.

IC50 (Giardia lamblia [2]) [µg/mL] | IC50 (Trichomonas vaginalis [3]) [µg/mL] | Compound | treatment of giardiasis infection (Giardia lamblia [1]) | carcinogenicity [4] | therapy of trichomoniasis (Trichomonas vaginalis [5]) | activity against T. vaginalis (in words) (Trichomonas vaginalis [3]) | adverse side effects [6]
1.25 (≈ 3.23 µM) | 3.63 (≈ 9.39 µM) | Clc1ccc(-n2ccc(=NN=Cc3ccc(Br)cc3)cc2)cc1 [(6), 1-[(4-chlorophenyl)-4(1H)-pyridinone]-2-[(4-bromophenyl)methylene]hydrazone] | – | – | – | – | –
1.5 (≈ 3.98 µM) | 3 (≈ 7.96 µM) | Clc1ccc(-n2ccc(=NN=Cc3ccc(Cl)c(Cl)c3)cc2)cc1 [(4), 1-[(4-chlorophenyl)-4(1H)-pyridinone]-2-[(3,4-dichlorophenyl)methylene]hydrazone] | – | – | – | – | –
6.2 (≈ 36.2 µM) | < 1 | Cc1ncc([N+](=O)[O-])n1CCO [metronidazole] | successfully treated | carcinogenic in animals | Successful therapy of trichomoniasis | – | –
1.1 (≈ 3.11 µM) | 2.88 (≈ 8.14 µM) | CSc1ccc(C=NN=c2ccn(-c3ccc(Cl)cc3)cc2)cc1 [(3), 1-[(4-chlorophenyl)-4(1H)-pyridinone]-2-[(4-methylthiophenyl)methylene]hydrazone] | – | – | – | effective anti-T. vaginalis agent | –
1.45 (≈ 4.24 µM) | 2.63 (≈ 7.68 µM) | Clc1ccc(C=NN=c2ccn(-c3ccc(Cl)cc3)cc2)cc1 [(1), 1-[(4-chlorophenyl)-4(1H)-pyridinone]-2-[(4-chlorophenyl)methylene]hydrazone] | – | – | – | active against T. vaginalis | –
